Reference: patent publication US7081464B2, “Topical compositions of cyclic amides as immunotherapeutic agents” (Celgene Corporation, priority 1995, dated 2006)

melting point [°C] | Compound
159 to 162 | COc1ccc(C(CC(=O)O)N2C(=O)c3ccccc3C2=O)cc1OC1CCCC1 (centres unmarked) [Example 2, 3-Phthalimido-3-(3-cyclopentyloxy-4-methoxyphenyl)propionic Acid]
76 to 78 | COC(=O)CC(c1ccc(OC)c(OC2CCCC2)c1)N1C(=O)c2ccccc2C1=O (centres unmarked) [Example 5, Methyl 3-phthalimido-3-(3-cyclopentyloxy-4-methoxyphenyl)propionate]
